US7074789B2, “Kinase inhibitors” (Amgen Inc., priority 1999, dated 2006)
Where two headings read alike, the source gives them in different places.

What was measured:
Assay type in all cases: biochemical
Lck = target: T1, Lck (Homo sapiens, UniProt P06239); test: Kinase inhibition assay (33P transfer), Lck
T1 construct: Kinases are expressed as either kinase domains or full length constructs; made in house
Procedure, shortened: (§1)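 Recombinant kinase-domain or full-length fusion proteins (GST or His tag) served as enzyme. Substrate poly(Glu,Tyr) 4:1 or poly(Arg,Ser) 3:1 was bound to the plate; transferred 33P was read by liquid scintillation following acid washing.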

Zap-70 = target: T2, Zap-70 (Homo sapiens, UniProt P43403); test: Kinase inhibition assay (33P transfer), Zap-70
T2 construct: Kinases are expressed as either kinase domains or full length constructs; made in house
T2 sequence (P43403 1-619): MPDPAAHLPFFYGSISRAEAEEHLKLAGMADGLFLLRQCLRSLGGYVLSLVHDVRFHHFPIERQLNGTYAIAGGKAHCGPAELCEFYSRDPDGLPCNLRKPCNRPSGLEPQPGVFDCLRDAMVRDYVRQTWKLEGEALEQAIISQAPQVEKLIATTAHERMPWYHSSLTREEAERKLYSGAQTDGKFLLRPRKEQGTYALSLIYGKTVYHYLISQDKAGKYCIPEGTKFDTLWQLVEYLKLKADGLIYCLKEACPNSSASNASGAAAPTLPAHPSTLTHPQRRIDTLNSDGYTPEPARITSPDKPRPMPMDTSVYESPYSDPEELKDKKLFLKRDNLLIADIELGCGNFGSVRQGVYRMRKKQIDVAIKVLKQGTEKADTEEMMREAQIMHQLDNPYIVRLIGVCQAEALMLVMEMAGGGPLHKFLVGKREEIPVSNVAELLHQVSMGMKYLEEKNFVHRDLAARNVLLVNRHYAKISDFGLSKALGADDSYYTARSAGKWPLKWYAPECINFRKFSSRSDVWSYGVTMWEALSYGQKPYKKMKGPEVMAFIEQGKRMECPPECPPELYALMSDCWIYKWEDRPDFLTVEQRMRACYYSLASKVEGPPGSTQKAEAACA
Procedure, shortened: as §1

Itk = target: T3, Itk (Homo sapiens, UniProt Q08881); test: Kinase inhibition assay (33P transfer), Itk; conditions: Table 3, class symbols; read-out: Itk-1
T3 construct: Kinases are expressed as either kinase domains or full length constructs; made in house
T3 sequence (Q08881 1-620): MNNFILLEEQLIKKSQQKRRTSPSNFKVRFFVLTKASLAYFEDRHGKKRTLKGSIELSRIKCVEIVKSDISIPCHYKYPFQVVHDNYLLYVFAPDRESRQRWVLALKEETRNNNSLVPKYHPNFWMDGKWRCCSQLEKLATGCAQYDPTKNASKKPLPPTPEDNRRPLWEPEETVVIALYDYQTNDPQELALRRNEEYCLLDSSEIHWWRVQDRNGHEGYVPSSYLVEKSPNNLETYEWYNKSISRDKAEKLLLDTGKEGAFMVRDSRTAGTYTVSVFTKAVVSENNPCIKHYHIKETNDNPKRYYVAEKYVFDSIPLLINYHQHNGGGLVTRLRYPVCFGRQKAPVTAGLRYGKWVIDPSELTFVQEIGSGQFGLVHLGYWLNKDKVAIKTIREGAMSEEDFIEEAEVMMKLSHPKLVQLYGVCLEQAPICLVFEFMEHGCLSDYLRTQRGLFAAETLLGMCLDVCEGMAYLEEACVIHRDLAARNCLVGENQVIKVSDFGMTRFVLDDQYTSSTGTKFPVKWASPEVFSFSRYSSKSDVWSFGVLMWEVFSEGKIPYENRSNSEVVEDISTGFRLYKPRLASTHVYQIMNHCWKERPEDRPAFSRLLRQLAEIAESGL
Procedure, shortened: (§2)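 Kinase domains or full-length enzymes, GST- or polyHis-tagged, were expressed in E. coli or baculovirus High Five cells and affinity-purified. Transfer of 33PO4 from ATP onto plate-bound poly(Glu,Tyr) 4:1 or poly(Arg,Ser) 3:1 was counted by liquid scintillation after a 0.5% phosphoric acid wash. IC50 = concentration halving incorporation.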

EGFR = target: T4, EGFR (Homo sapiens, UniProt P00533); test: Kinase inhibition assay (33P transfer), EGFR; conditions: Table 2, class symbols A-E; read-out: EGFR-1
T4 construct: Kinases are expressed as either kinase domains or full length constructs; made in house
Procedure, shortened: as §2

ErbB2 = target: T5, ErbB2 (Homo sapiens, UniProt P04626); test: Kinase inhibition assay (33P transfer), ErbB2; conditions: read-out: ErbB2-2
T5 construct: Kinases are expressed as either kinase domains or full length constructs; made in house
Procedure, shortened: as §2

Kdr = target: T6, Kdr (Homo sapiens, UniProt P35968); test: Kinase inhibition assay (33P transfer), Kdr; conditions: Table 3, class symbols; read-out: KDR-1
T6 construct: Kinases are expressed as either kinase domains or full length constructs; made in house
Procedure, shortened: as §1

c-Met = target: T7, c-Met (Homo sapiens, UniProt P08581); test: Kinase inhibition assay (33P transfer), c-Met; conditions: Table 2, class symbols A-E; read-out: Met-1
T7 construct: Kinases are expressed as either kinase domains or full length constructs; made in house
Procedure, shortened: as §2

AKT = target: T8, AKT (Homo sapiens, UniProt Q9Y243); test: Kinase inhibition assay (33P transfer), AKT
T8 construct: Kinases are expressed as either kinase domains or full length constructs; made in house
Procedure, shortened: as §1

IGFR-1 = target: T9, IGFR-1 (Homo sapiens, UniProt P08069); test: Kinase inhibition assay (33P transfer), IGFR-1; conditions: Table 2, class symbols A-E
T9 construct: Kinases are expressed as either kinase domains or full length constructs; made in house

[1] = Table 3, class symbols, read-out: Lck-1
[2] = Table 3, class symbols, read-out: Zap-1
[3] = Table 2, class symbols A-E, read-out: AKT3-1

T1 sequence (P06239 whole entry, species assumed, the tested form may be a part): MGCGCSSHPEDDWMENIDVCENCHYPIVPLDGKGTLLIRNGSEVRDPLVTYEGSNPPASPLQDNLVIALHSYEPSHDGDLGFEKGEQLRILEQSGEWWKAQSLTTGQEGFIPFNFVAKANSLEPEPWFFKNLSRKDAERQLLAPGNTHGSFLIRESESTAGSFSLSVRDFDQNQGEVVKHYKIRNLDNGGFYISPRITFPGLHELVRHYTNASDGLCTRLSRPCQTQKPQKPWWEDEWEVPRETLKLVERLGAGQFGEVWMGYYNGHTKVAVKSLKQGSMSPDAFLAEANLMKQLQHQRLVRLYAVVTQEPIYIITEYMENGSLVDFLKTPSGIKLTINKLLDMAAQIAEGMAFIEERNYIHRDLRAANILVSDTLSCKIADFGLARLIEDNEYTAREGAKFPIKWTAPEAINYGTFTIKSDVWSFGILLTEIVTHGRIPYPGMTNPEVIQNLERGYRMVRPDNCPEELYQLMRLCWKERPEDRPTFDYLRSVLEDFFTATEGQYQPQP
T9 sequence (P08069 31-1367): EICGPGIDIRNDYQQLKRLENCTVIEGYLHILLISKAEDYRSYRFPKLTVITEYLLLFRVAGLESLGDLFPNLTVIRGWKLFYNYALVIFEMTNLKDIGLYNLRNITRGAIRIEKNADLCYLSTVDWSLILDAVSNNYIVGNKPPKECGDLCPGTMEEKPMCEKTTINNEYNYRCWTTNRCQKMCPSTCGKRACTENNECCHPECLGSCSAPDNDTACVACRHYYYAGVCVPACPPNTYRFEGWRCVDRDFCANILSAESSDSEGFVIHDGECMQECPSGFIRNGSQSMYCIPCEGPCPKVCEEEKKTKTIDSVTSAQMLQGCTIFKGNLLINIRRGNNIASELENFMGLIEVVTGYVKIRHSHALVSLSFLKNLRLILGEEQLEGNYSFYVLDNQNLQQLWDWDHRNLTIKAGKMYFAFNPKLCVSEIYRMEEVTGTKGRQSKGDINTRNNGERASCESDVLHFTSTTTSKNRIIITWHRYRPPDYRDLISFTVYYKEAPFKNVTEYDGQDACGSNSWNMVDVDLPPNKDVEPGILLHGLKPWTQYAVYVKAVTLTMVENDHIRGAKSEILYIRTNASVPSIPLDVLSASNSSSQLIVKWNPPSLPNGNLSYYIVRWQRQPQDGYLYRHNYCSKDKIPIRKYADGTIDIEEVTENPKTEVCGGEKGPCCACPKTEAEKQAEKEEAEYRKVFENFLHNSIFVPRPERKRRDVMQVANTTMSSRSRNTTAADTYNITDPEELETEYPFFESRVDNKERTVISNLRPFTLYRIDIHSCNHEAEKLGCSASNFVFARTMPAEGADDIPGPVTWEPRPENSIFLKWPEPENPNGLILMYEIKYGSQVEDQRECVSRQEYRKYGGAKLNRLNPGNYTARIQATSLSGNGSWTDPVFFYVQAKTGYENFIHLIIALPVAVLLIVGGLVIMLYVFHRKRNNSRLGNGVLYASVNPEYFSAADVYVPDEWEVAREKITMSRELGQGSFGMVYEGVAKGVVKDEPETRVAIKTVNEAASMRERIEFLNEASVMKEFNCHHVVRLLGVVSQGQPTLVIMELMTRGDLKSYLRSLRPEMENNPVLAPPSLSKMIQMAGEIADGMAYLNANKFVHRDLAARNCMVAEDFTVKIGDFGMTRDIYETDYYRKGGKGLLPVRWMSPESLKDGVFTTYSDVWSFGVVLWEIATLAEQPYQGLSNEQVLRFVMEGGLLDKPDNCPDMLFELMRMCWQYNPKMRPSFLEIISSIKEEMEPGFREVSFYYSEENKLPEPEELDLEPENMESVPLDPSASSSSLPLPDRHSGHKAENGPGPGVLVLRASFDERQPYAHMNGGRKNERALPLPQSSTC
T4 sequence (P00533 25-1210, species assumed): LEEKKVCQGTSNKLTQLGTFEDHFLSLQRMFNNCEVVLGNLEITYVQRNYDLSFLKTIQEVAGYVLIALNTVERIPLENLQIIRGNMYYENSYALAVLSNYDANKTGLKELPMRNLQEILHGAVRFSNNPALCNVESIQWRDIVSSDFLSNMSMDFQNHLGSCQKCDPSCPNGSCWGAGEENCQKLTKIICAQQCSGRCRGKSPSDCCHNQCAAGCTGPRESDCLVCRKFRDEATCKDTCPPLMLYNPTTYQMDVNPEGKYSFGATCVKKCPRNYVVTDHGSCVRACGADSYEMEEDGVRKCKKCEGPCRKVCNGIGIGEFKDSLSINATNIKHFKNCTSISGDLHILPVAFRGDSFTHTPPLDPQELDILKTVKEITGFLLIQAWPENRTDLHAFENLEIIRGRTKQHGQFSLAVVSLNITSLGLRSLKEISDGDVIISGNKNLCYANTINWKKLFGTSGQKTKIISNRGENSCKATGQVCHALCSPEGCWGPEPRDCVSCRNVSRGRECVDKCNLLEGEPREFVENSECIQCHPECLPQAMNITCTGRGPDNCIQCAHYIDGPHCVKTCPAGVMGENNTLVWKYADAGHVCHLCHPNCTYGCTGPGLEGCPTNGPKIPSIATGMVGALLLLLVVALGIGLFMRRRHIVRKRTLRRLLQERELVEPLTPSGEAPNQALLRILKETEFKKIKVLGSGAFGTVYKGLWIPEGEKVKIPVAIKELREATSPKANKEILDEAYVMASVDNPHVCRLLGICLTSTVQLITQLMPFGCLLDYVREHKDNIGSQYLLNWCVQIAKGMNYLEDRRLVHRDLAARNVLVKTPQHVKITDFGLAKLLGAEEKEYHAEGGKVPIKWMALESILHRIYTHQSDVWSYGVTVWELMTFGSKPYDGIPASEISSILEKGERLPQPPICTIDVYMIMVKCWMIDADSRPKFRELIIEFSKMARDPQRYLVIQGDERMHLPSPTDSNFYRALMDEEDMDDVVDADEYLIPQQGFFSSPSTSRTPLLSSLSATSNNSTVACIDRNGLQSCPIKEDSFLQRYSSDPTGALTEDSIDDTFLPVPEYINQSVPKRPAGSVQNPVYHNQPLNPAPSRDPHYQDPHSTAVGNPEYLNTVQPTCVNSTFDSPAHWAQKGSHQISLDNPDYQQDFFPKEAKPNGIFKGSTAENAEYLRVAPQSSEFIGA
T7 sequence (P08581 25-1390): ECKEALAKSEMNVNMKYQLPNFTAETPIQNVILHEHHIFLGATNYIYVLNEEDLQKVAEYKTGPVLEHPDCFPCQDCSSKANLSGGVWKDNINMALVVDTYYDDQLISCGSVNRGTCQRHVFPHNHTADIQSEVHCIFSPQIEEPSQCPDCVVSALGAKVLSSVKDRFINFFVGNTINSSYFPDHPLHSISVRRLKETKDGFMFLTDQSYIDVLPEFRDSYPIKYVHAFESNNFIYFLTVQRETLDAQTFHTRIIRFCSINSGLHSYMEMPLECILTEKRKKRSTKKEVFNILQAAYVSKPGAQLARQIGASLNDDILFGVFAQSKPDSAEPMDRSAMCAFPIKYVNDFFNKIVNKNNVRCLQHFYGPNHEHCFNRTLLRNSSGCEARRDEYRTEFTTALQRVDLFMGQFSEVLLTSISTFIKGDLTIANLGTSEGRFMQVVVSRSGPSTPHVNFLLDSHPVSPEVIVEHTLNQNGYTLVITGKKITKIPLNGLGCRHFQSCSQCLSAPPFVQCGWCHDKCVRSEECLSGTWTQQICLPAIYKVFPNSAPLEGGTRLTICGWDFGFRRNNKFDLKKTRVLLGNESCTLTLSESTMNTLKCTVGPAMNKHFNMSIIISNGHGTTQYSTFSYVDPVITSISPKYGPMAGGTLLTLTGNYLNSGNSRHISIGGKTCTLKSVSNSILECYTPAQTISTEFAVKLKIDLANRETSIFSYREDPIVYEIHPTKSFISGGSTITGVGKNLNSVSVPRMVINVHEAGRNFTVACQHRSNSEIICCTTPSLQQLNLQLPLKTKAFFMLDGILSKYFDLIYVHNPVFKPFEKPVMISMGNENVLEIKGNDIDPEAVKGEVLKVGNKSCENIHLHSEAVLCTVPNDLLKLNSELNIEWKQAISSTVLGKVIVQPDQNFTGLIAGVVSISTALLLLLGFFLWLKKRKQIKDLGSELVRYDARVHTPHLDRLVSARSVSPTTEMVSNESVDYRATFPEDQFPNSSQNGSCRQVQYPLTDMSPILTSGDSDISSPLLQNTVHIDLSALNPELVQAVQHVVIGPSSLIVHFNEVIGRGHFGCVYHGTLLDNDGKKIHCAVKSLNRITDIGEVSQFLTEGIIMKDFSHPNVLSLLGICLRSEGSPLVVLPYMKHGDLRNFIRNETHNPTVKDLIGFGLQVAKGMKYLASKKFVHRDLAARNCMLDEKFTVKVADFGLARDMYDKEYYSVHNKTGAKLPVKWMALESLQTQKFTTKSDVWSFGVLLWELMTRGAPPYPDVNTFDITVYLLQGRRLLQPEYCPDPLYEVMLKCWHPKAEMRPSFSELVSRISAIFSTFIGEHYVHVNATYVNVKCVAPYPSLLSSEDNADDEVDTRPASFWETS
T8 sequence (Q9Y243 whole entry, the tested form may be a part): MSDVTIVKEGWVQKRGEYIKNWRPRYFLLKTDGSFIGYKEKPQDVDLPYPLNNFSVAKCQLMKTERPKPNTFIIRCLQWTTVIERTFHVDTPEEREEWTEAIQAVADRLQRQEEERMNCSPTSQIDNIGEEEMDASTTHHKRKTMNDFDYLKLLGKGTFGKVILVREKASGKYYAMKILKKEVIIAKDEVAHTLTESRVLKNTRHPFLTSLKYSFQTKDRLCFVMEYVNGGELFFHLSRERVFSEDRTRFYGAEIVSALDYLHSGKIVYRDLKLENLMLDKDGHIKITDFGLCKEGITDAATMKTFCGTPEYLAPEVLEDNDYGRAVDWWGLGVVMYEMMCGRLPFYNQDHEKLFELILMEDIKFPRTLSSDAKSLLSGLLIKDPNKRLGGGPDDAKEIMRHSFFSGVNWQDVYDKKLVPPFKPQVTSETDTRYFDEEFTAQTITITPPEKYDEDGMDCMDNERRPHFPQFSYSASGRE

Row | Compound | IC50 (Lck; [1]) [µM] | IC50 (Zap-70; [2]) [µM] | IC50 (Itk) [µM] | IC50 (EGFR) [µM] | IC50 (ErbB2) [µM] | IC50 (Kdr) [µM] | IC50 (c-Met) [µM] | IC50 (AKT; [3]) [µM] | IC50 (IGFR-1) [µM] | IC50 (Lck; Lck-1, Table 3, class symbols) [µM] | IC50 (Zap-70) [µM] | IC50 (AKT; AKT3-1, Table 2, class symbols A-E) [µM]
1 | CC(C)Nc1ncccc1-c1ncnc(Nc2ccc(N3CCOCC3)cc2)n1 [Compound 1112] | 1.02 to 6.13 | > 11.5 | 8.94 to 11.5 | 1.02 to 6.13 | 1.02 to 6.13 | < 1.02 | 1.02 to 6.13 | > 11.5 | > 11.5 |  |  | 
2 | COc1ccc(Nc2ncnc(N(C)c3ccc([N+](=O)[O-])cc3)n2)cc1OC [Compound 862] | > 11.8 | > 11.8 | > 11.8 | 1.05 to 6.28 | > 11.8 | > 11.8 | < 1.05 | > 11.8 | > 11.8 |  |  | 
3 | COc1ccc(Nc2ncnc(N(C)c3ccccc3Cl)n2)cc1OC [Compound 865] | 1.08 to 6.45 | > 12.1 | > 12.1 | < 1.08 | 1.08 to 6.45 | 6.45 to 9.41 | 1.08 to 6.45 | > 12.1 | > 12.1 |  |  | 
4 | COc1cc(Nc2ncnc(Nc3cc(-c4ccc(C(N)=O)cc4)n[nH]3)n2)cc(OC)c1OC [Compound 642] | < 0.865 | > 9.73 | 0.865 to 5.19 | 0.865 to 5.19 | 0.865 to 5.19 | 0.865 to 5.19 | < 0.865 | > 9.73 | < 0.865 |  |  | 
5 | COc1ccc(Nc2ncnc(NCc3ncc(C(F)(F)F)cc3Cl)n2)cc1OC [Compound 858] | > 10.2 | > 10.2 | > 10.2 | 5.44 to 7.94 | > 10.2 | > 10.2 | > 10.2 | > 10.2 | > 10.2 |  |  | 
6 | COc1ccc(Nc2ncnc(NCCc3ccc(Cl)c(Cl)c3)n2)cc1OC [Compound 859] | > 10.7 | 0.952 to 5.71 | 0.952 to 5.71 | 0.952 to 5.71 | 0.952 to 5.71 | 5.71 to 8.33 | 0.952 to 5.71 | 0.952 to 5.71 | 5.71 to 8.33 |  |  | 
7 | COC(=O)c1cccc(Nc2ncnc(-n3c(NCc4ccc(OC)cc4)nc4ccccc43)n2)c1 [Compound 1068] | > 9.35 | > 9.35 | > 9.35 | > 9.35 | 4.98 to 7.27 | < 0.831 | > 9.35 | > 9.35 | > 9.35 |  |  | 
8 | COc1cc(Nc2ncnc(-c3cccnc3N[C@@H](C)c3ccccc3)n2)cc(OC)c1OC [Compound 1111] | < 0.872 | > 9.81 | > 9.81 | 0.872 to 5.23 | 5.23 to 7.63 | < 0.872 | > 9.81 | > 9.81 | > 9.81 |  |  | 
9 | COC(=O)c1ccc(N(C)c2ncnc(Nc3ccc(OC)c(OC)c3)n2)cc1 [Compound 864] | > 11.4 | > 11.4 | > 11.4 | > 11.4 | > 11.4 | 1.01 to 6.07 | < 1.01 | > 11.4 | > 11.4 |  |  | 
10 | c1ccc(Cn2ncc3cc(Nc4ncnc(Nc5cccc(Cn6ccnn6)c5)n4)ccc32)cc1 [Compound 676] | 0.843 to 5.06 | > 9.48 | 0.843 to 5.06 | < 0.843 | < 0.843 | 0.843 to 5.06 | 0.843 to 5.06 | 5.06 to 7.38 | 0.843 to 5.06 |  |  | 
11 | COc1cc(Nc2ncnc(-c3cccnc3Nc3ccccc3)n2)cc(OC)c1OC [Compound 1092] |  |  | > 10.5 | > 10.5 | > 10.5 |  | > 10.5 |  | > 10.5 | > 10.5 | > 10.5 | > 10.5
12 | c1ccc(Nc2ncccc2-c2ncnc(Nc3ccc(N4CCOCC4)cc3)n2)cc1 [Compound 1113] | 5.64 to 8.23 | 0.94 to 5.64 | > 10.6 | 0.94 to 5.64 | 0.94 to 5.64 | 0.94 to 5.64 | 0.94 to 5.64 | > 10.6 | > 10.6 |  |  | 
13 | COc1cc(Nc2ncnc(Nc3cccc(Cl)c3)n2)cc(OC)c1 [Compound 723] | 1.12 to 6.71 | 1.12 to 6.71 | 9.78 to 12.6 | < 1.12 | < 1.12 | 1.12 to 6.71 | 6.71 to 9.78 | 1.12 to 6.71 | < 1.12 |  |  | 
14 | OCc1cccc(Nc2ncnc(-c3cccnc3Nc3ccccc3)n2)c1 [Compound 1115] | 1.08 to 6.48 | > 12.1 | > 12.1 | 1.08 to 6.48 |  | < 1.08 | 1.08 to 6.48 | > 12.1 | > 12.1 |  |  | 
15 | COC(=O)c1cccc(Nc2ncnc(-n3c(NCc4ccccc4)nc4ccccc43)n2)c1 [Compound 1067] | > 9.97 | > 9.97 | > 9.97 | 0.886 to 5.32 | 0.886 to 5.32 | < 0.886 | > 9.97 | > 9.97 | > 9.97 |  |  | 
16 | COc1cc(Nc2ncnc(-c3cccnc3N[C@H](C)c3ccccc3)n2)cc(OC)c1OC [Compound 1110] | < 0.872 | > 9.81 | > 9.81 | 0.872 to 5.23 | > 9.81 | 5.23 to 7.63 | > 9.81 | > 9.81 | > 9.81 |  |  | 
17 | CN(c1cccc(Cl)c1)c1ncnc(Nc2ccc(OCCO)cc2)n1 [Compound 641] | 1.08 to 6.45 | > 12.1 | > 12.1 | < 1.08 | 1.08 to 6.45 | 1.08 to 6.45 | < 1.08 | > 12.1 | 1.08 to 6.45 |  |  | 
18 | CN(c1ccc2c(cnn2Cc2ccccc2)c1)c1ncnc(Nc2cccc(Cn3ccnn3)c2)n1 [Compound 677] | 0.819 to 4.91 | > 9.21 | 4.91 to 7.16 | < 0.819 | < 0.819 | < 0.819 | < 0.819 | > 9.21 | 4.91 to 7.16 |  |  | 
19 | COc1ccc(Nc2ncnc(N(C)c3ccc(C(=O)O)cc3)n2)cc1OC [Compound 860] | > 11.8 | > 11.8 | > 11.8 | > 11.8 | 9.18 to 11.8 | 6.29 to 9.18 | 1.05 to 6.29 | > 11.8 | 6.29 to 9.18 |  |  | 
20 | c1ccc(Nc2ncccc2-c2ncnc(Nc3ccc4[nH]ncc4c3)n2)cc1 [Compound 1117] | > 11.8 | > 11.8 | > 11.8 | 9.2 to 11.8 |  | < 1.05 | 1.05 to 6.31 | > 11.8 | > 11.8 |  |  | 
21 | COc1ccc(Nc2ncnc(N(C)c3ccc(OC(F)(F)F)cc3)n2)cc1OC [Compound 866] | 5.7 to 8.31 | > 10.7 | > 10.7 | 0.949 to 5.7 |  | 0.949 to 5.7 | 0.949 to 5.7 | > 10.7 | > 10.7 |  |  | 
22 | COc1ccc2[nH]cc(CCNc3ncnc(Nc4ccc(OC)c(OC)c4)n3)c2c1 [Compound 855] | > 10.7 | > 10.7 | > 10.7 | > 10.7 |  | > 10.7 | > 10.7 | > 10.7 | > 10.7 |  |  | 
